This passage reports IC50 and IC95 results from ChEMBL document CHEMBL1127784, “Design and synthesis of peptidomimetic inhibitors of HIV-1 protease and renin. Evidence for improved transport” (J Med Chem, 1994).

For assay [1], the target named is Human immunodeficiency virus type 1 protease (Human immunodeficiency virus 1, UniProt Q72874). Description: In vitro inhibitory concentration against HIV-1 protease.
In assay [2] the target is Human immunodeficiency virus type 1 protease (Human immunodeficiency virus 1) (UniProt Q72874). Kind of assay: Tested for the relative potency against HIV-1 protease in the cellular antiviral assay.
The target in assay [3] is T1, Renin (Homo sapiens, UniProt P00797).
T1 sequence (P00797 whole entry): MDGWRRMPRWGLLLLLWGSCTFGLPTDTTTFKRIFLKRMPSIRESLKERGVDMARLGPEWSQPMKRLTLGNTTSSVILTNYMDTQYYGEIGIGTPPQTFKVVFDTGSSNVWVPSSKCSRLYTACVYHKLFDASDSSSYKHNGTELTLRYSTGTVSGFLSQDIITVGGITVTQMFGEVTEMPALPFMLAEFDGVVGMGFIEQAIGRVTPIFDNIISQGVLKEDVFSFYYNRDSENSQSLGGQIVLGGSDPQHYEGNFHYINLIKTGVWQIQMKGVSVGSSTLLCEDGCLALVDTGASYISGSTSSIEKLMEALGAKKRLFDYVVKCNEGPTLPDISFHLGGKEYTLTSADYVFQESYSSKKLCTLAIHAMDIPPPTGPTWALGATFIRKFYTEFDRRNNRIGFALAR
Kind of assay: In vitro inhibitory concentration against renin.

For orientation: IC50 means the concentration that gives 50% inhibition. As a reminder, the IC95 is the point of the concentration-response curve where the effect stands at 95%. A higher IC95 goes with weaker potency.

`CC(C)C[C@@]1(C2=C(O)[C@](Cc3ccccc3)(C[C@H](O)[C@H](Cc3ccccc3)NC(=O)OC(C)(C)C)N=C2)N=CC([C@@H](Cc2ccccc2)C(N)=O)=C1O` gave an IC50 in assay [1] of 10 nM. Moreover, the IC95 in assay [2] worked out at 1500 nM.

The molecule `CC(C)C[C@@]1(C2=C(O)[C@](Cc3ccccc3)(C[C@H](O)[C@H](Cc3ccccc3)NC(=O)O[C@@H]3CCOC3)N=C2)N=CC([C@@H](Cc2ccccc2)C(N)=O)=C1O` displayed an IC50 in assay [1] of 1.3 nM. This molecule also returned an IC95 in assay [2] of 800 nM.

For `CC(C)C[C@H](NC(=O)[C@H](Cc1ccccc1)C[C@H](O)[C@H](Cc1ccccc1)NC(=O)OC(C)(C)C)C(=O)N[C@@H](Cc1ccccc1)C(N)=O`, the IC95 in assay [2] worked out at 6000 nM.

In assay [3], `CC(C)C[C@H](O)[C@H](O)[C@H](CC1CCCCC1)C1=C(O)[C@](CC(C)C)(C2=C(O)[C@@](CC(=O)N3CCOCC3)(Cc3ccccc3)N=C2)N=C1` gave an IC50 of 18000 nM.

For the molecule `CC(C)C[C@@H](C(=O)N[C@@H](CC1CCCCC1)[C@@H](O)[C@@H](O)CC(C)C)C1=C(O)[C@@](CC(=O)N2CCOCC2)(Cc2ccccc2)N=C1`, in assay [3], inhibition was half-maximal at 600 nM (IC50).
